Experiments:
[1] = system: T. cruzi trypomastigotes (Y strain); assay: MTT reduction viability assay on isolated trypomastigotes; format: cell-based, Trypanosoma cruzi; conditions: for EC50: Trypanosoma cruzi, Y strain, 24 hours exposure, MTT assay, mean ± SD, read-out: EC50 T. cruzi trypomastigote; for Selectivity index (VERO/T. cruzi): ratio of EC50 VERO cells to EC50 T. cruzi trypomastigote
Method: (§1) Trypomastigotes (Y strain, DTU T. cruzi II) were obtained from infected VERO cells (Chlorocebus sabaeus kidney fibroblasts obtained from ATCC, ATCC number: CCL-81). The cells were exposed to trypomastigotes (Y strain) at a 3:1 density (trypomastigote:cell). The trypomastigotes were allowed to infect the cells for 24 h, and the supernatant was then extracted. The trypomastigotes were released from VERO cells at 4 days after infection. The parasites were harvested and collected for viability assays. The effect of the drugs on parasite viability was evaluated using the tetrazolium salt (MTT) reduction assay. […] Alternatively, VERO cells attached to the surface of 96-well plates were washed and incubated with MTT (5 mg/mL). After incubation for 4 h at 37°C, the generated formazan crystals were dissolved with 100 μL of 10% (w/v) sodium dodecyl sulfate (SDS) in 0.01 M HCl. The plates were then incubated overnight at 37°C, and the optical density (OD) was determined using a microplate reader (Labsystems Multiskan MS, Finland) at 570 nm. Under these conditions, the OD is directly proportional to the number of viable cells in each well [33, 34]. All of the experiments were performed at least three times. […] The data from each experiment were plotted using the formazan absorbance versus the log of the concentration, and the plot was fitted to the dose-response (four-parameters) equation using the software Graph Pad Prism V5.0, obtaining the EC50 value per drug and per experiment. The data are expressed as the mean ± DS of the EC50s obtained from each experiment.

[2] = system: T. cruzi trypomastigotes mitochondrial transmembrane potential (ΔΨm); assay: Mitochondrial membrane potential assessment by JC-1; format: cell-based, Trypanosoma cruzi; conditions: 1 μM, 2 hours, Fig 5A bottom panel; FCCP 100 μM positive control
Method: For the determination of mitochondrial membrane potential by JC-1, we adapted the method described by Cossariza and Savioli (2001). In total, 5 x 10^6 trypomastigotes were seeded in 24-well plates in 1 mL of RPMI medium without FBS. The parasites were exposed to 0.1 or 1 μM of the different TPP^+ derivatives for 2 hours; alternatively, the parasites were exposed to 100 μM FCCP (Sigma Aldrich, USA) for 15 min as a positive control of the uncoupling of mitochondrial respiration. The cells were then washed with 500 μL of PBS and centrifuged at 1500 x g for 5 min. The parasites were then resuspended in 1 mL of PBS at 37°C. JC-1 (Molecular Probes, Applied Biosytems, USA) 1 mg/mL in DMSO was added at a final concentration of 5 μg/mL, and the mixtures were incubated for 15 min at 37°C in the dark. Next, the samples were centrifuged at 1500 x g for 5 min, and the supernatants, which contained unincorporated JC-1, were discarded. The pellet was suspended in PBS (1 mL), and fluorescence was measured using a FACSAria-III flow cytometer (BD Biosciences, USA). We used 488 nm as the excitation wavelength; the emission of JC-1 monomers was detected using the FITC filter (530/30), and the JC-1 aggregates were detected using the PE filter (585/42). Each measurement involved 5,000 events. The data were analyzed using FACSDiva 6.1 software.

[3] = system: T. cruzi intracellular amastigotes in VERO cells; assay: DAPI staining and intracellular amastigote quantification in infected VERO cells; format: cell-based, Trypanosoma cruzi; conditions: 1 μM, 48 hours, control 12.9 ± 2.2
Method: VERO (Chlorocebus sabaeus kidney fibroblasts, ATCC number: CCL-81) cells were exposed to T. cruzi trypomastigotes (Y strain) at a 5:1 ratio (trypomastigotes:cells) for 24 hours. The cells were then washed and treated with different compounds, at 0.1 and 1 μM, for 48 hours. The cells were washed and fixed in cold methanol (70%) overnight; the fixed cells were washed, and 1 mL of PBS (pH 7.4) was added. The DNA was stained with DAPI (NucBlue, Molecular Probes, USA) following the manufacturer’s instructions. The cells were photographed using a Nikon Eclipse 400 fluorescence microscope at 358 nm (excitation) and 461 nm (emission). Five images were obtained per well, and each picture was analyzed by two independent researchers.

VERO cells = assay: MTT reduction viability assay on VERO cells; format: cell-based; conditions: Chlorocebus sabaeus, 24 hours exposure, mean ± SD
Method: as §1, with “The” for “Trypomastigotes (Y strain, DTU T. cruzi II) were obtained from infected VERO cells (Chlorocebus sabaeus kidney fibroblasts obtained from ATCC, ATCC number: CCL-81). The cells were exposed to trypomastigotes (Y strain) at a 3:1 density (trypomastigote:cell). The trypomastigotes were allowed to infect the cells for 24 h, and the supernatant was then extracted. The trypomastigotes were released from VERO cells at 4 days after infection. The parasites were harvested and collected for viability assays. The”

O=C(OCCCCCCCCCC[P+](c1ccccc1)(c1ccccc1)c1ccccc1)c1cc(O)c(O)c(O)c1.[Br-] [TPP^+-C10, triphenyl(10-((3,4,5-trihydroxybenzoyl)oxy)-decyl) phosphonium bromide]
EC50 [1]: 1 ± 0.6 µM | Selectivity index (VERO/T. cruzi) [1]: 11.3 | JC-1 red fluorescence (aggregates) [2]: induced mitochondrial changes, though to a lower extent than FCCP | number of amastigotes per infected cell [3]: 2.5 ± 1.1 | EC50 (VERO cells): 11.3 ± 0.1 µM

O=C(OCCCCCCCCCCCC[P+](c1ccccc1)(c1ccccc1)c1ccccc1)c1cc(O)c(O)c(O)c1.[Br-] [TPP^+-C12, triphenyl(12-((3,4,5-trihydroxybenzoyl)oxy)-dodecyl) phosphonium bromide]
EC50 [1]: 1 ± 0.7 µM | Selectivity index (VERO/T. cruzi) [1]: 10.9 | JC-1 red fluorescence (aggregates) [2]: induced mitochondrial changes, though to a lower extent than FCCP | number of amastigotes per infected cell [3]: 2.0 ± 0.7 | EC50 (VERO cells): 10.9 ± 2.4 µM
